What was measured:
Assay type in all cases: cell-based
human TLR7 = biological target: T1, human TLR7 (Homo sapiens, UniProt Q9NYK1); test: TLR7 inhibition reporter assay (HEK-Blue cells, SEAP reporter, gardiquimod stimulation); conditions: HEK-Blue cells overexpressing human TLR7, SEAP reporter, gardiquimod 7.5 μM
T1 construct: host or cells: HEK-Blue cells (HEK293-derived reporter line)
T1 sequence (Q9NYK1 27-1049): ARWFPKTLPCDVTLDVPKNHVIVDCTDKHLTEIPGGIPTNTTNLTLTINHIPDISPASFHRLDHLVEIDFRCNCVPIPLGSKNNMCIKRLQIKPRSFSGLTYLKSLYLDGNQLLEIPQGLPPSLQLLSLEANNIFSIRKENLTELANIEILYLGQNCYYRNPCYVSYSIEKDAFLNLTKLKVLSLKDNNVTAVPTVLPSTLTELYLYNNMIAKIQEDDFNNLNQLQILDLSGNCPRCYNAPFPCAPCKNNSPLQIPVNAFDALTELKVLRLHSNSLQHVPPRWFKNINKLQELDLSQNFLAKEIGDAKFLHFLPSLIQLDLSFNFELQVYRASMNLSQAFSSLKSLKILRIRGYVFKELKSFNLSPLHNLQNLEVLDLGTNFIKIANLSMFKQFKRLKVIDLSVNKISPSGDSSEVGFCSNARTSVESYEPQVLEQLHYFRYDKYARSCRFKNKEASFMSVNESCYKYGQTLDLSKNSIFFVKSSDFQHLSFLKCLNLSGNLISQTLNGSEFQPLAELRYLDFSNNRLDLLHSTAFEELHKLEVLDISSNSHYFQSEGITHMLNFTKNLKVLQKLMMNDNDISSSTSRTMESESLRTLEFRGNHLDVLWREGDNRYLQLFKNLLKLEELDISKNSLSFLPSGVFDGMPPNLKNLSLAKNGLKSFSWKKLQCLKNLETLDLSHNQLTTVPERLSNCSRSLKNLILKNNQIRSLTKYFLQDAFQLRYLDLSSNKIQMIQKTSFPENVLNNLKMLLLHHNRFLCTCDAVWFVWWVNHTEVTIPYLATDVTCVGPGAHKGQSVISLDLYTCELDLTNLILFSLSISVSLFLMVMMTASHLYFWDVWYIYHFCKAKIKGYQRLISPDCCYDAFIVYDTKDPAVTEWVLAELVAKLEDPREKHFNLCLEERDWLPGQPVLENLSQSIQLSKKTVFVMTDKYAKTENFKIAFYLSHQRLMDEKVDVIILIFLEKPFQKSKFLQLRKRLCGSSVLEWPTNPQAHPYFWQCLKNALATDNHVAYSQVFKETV
Procedure, shortened: (§1)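 Read-out is SEAP activity in HEK-Blue detection medium after 22 h at 37 °C, converted to percent inhibition against agonist-plus-DMSO and reference-inhibitor controls. Cells saw compound (0.05 nM–50 μM, 30 min, room temperature) before gardiquimod 7.5 μM, R848 15.9 μM or ODN2006 5 nM for TLR7, TLR8 and TLR9, respectively.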

human TLR8 = biological target: T2, human TLR8 (Homo sapiens, UniProt Q9NR97); test: TLR8 inhibition reporter assay (HEK-Blue cells, SEAP reporter, R848 stimulation); conditions: HEK-Blue cells overexpressing human TLR8, SEAP reporter, R848 15.9 μM
T2 construct: host or cells: HEK-Blue cells (HEK293-derived reporter line)
T2 sequence (Q9NR97 27-1041): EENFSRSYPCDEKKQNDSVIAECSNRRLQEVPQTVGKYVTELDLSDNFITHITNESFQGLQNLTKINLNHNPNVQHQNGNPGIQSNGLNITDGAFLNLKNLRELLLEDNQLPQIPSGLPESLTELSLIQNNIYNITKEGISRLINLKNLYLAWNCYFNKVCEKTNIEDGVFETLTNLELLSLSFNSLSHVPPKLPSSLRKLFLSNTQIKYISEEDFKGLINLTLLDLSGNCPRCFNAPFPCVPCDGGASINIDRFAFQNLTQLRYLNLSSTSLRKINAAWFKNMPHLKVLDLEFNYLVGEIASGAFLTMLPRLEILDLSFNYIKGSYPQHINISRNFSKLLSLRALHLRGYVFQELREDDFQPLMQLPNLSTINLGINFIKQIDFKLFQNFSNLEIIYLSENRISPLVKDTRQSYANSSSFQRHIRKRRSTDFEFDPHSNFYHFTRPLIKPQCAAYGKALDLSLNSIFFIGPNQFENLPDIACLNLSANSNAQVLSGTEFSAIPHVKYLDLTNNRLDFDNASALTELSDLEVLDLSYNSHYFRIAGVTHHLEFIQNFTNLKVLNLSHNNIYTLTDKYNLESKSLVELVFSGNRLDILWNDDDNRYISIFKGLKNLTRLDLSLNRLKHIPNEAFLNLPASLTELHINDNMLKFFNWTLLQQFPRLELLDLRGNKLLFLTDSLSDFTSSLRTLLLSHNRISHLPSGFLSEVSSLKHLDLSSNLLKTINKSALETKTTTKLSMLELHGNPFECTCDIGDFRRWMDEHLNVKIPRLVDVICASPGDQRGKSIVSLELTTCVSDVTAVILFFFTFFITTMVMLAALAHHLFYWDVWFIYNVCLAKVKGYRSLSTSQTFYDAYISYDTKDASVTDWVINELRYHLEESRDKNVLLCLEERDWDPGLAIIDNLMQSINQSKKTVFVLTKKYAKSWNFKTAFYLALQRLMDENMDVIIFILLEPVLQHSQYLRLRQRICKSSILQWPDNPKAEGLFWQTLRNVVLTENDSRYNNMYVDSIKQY
Procedure, shortened: as §1

human TLR9 = biological target: T3, human TLR9 (Homo sapiens, UniProt Q9NR96); test: TLR9 inhibition reporter assay (HEK-Blue cells, SEAP reporter, ODN2006 stimulation); conditions: HEK-Blue cells overexpressing human TLR9, SEAP reporter, ODN2006 5 nM
T3 construct: host or cells: HEK-Blue cells (HEK293-derived reporter line)
T3 sequence (Q9NR96 26-1032): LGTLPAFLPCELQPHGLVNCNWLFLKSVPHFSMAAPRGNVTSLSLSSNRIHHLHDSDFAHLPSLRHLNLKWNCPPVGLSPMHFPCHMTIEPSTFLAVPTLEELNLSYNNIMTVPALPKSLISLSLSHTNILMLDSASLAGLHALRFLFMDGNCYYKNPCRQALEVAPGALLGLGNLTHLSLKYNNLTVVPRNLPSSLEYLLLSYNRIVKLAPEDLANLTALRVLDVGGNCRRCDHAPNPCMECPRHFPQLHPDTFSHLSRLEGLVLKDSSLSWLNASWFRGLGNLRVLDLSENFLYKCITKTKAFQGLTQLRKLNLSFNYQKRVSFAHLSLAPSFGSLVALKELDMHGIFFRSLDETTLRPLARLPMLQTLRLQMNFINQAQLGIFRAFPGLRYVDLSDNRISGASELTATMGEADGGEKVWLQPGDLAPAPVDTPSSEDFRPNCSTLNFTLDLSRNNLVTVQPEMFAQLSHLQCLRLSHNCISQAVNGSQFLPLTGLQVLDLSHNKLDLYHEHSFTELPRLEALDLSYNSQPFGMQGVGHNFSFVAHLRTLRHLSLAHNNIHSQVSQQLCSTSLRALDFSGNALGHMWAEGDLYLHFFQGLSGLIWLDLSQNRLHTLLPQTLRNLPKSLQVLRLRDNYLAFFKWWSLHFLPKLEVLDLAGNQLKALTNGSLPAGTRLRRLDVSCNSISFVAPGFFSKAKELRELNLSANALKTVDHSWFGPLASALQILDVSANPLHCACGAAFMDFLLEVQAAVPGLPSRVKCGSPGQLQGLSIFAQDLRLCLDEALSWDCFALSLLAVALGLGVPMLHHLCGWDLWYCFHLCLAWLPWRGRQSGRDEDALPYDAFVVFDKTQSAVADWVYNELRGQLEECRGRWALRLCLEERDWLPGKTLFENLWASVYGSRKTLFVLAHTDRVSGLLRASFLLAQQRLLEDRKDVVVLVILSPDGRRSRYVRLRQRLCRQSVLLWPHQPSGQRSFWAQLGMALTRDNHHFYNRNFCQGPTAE
Procedure, shortened: as §1

| Compound | IC50 (human TLR7) [nM] | IC50 (human TLR8) [nM] | IC50 (human TLR9) [nM] |
| --- | --- | --- | --- |
| CC(C)c1c(-c2ccnc3[nH]ncc23)[nH]c2ccc(C3CCN(C4CCNCC4)CC3)cc12 [Example 832, 4-(5-([1,4′-bipiperidin]-4-yl)-3-isopropyl-1H-indol-2-yl)-1H-pyrazolo[3,4-b]pyridine] | < 100 | < 100 | 100 to 1000 |
| Cc1cc(-c2[nH]c3ccc(C4CCNCC4)cc3c2C(C)C)cc2ccnn12 [Example 143, 5-(3-isopropyl-5-(piperidin-4-yl)-1H-indol-2-yl)-7-methylpyrazolo[1,5-a]pyridine] | < 100 | < 100 | 1000 to 50000 |
| COc1cc(CN(C)C)cc(CN2CCC(c3ccc4[nH]c(-c5ccnc6[nH]ncc56)c(C(C)C)c4c3)CC2)c1O [Example 924, 4-((dimethylamino)methyl)-2-((4-(3-isopropyl-2-(1H-pyrazolo[3,4-b]pyridin-4-yl)-1H-indol-5-yl)piperidin-1-yl)methyl)-6-methoxyphenol] | < 100 | < 100 | 100 to 1000 |
| Cc1cc(-c2[nH]c3ccc(C4CCN(CCS(C)(=O)=O)CC4)cc3c2C(C)C)cn2nncc12 [Example 785, 6-(3-isopropyl-5-(1-(2-(methylsulfonyl)ethyl)piperidin-4-yl)-1H-indol-2-yl)-4-methyl-[1,2,3]triazolo[1,5-a]pyridine] | 1000 to 50000 | 100 to 1000 | 1000 to 50000 |
| CCc1c(-c2ccnc3[nH]ncc23)[nH]c2ccc(C3CCN(CC(N)=O)CC3)cc12 [Example 289, 2-(4-(3-ethyl-2-(1H-pyrazolo[3,4-b]pyridin-4-yl)-1H-indol-5-yl)piperidin-1-yl)acetamide] | < 100 | < 100 | 1000 to 50000 |
| Cc1cc(-c2[nH]c3ccc(C4CCN(C(=O)CCN5CCC6CC65)CC4)cc3c2C(C)C)cn2nnnc12 (stereo not drawn) [Example 632, 3-(2-azabicyclo[3.1.0]hexan-2-yl)-1-(4-(3-isopropyl-2-(8-methyltetrazolo[1,5-a]pyridin-6-yl)-1H-indol-5-yl)piperidin-1-yl)propan-1-one] | < 100 | < 100 | 1000 to 50000 |
| CCc1ncc(CN2CCC(c3ccc4[nH]c(-c5ccnc6[nH]ncc56)c(CC)c4c3)CC2)[nH]1 [Example 915, 4-(3-ethyl-5-(1-((2-ethyl-1H-imidazol-5-yl)methyl)piperidin-4-yl)-1H-indol-2-yl)-1H-pyrazolo[3,4-b]pyridine] | 100 to 1000 | < 100 | 100 to 1000 |
| Cc1cc(-c2[nH]c3ccc(C4CCN(C(=O)CN(C)C)CC4)cc3c2C(C)C)cc2ncnn12 [Example 536, 2-(dimethylamino)-1-(4-(3-isopropyl-2-(5-methyl-[1,2,4]triazolo[1,5-a]pyridin-7-yl)-1H-indol-5-yl)piperidin-1-yl)ethan-1-one] | < 100 | < 100 | 1000 to 50000 |
| CCc1c(-c2ccnc3[nH]ccc23)[nH]c2ccc(C3CCN(Cc4cccn4C)CC3)cc12 [Example 871, 4-(3-ethyl-5-(1-((1-methyl-1H-pyrrol-2-yl)methyl)piperidin-4-yl)-1H-indol-2-yl)-1H-pyrrolo[2,3-b]pyridine] | 100 to 1000 | < 100 | 1000 to 50000 |
| Cc1cc(-c2[nH]c3ccc(C4CCN(C(=O)CN5CCCCC5)CC4)cc3c2C(C)C)cn2nnnc12 [Example 472, 1-(4-(3-isopropyl-2-(8-methyltetrazolo[1,5-a]pyridin-6-yl)-1H-indol-5-yl)piperidin-1-yl)-2-(piperidin-1-yl)ethan-1-one] | < 100 | < 100 | 1000 to 50000 |
| Cc1c(-c2[nH]c3ccc(C4CCN(CC(=O)N(C)C)CC4)cc3c2C(C)C)nn2ncnc2c1C [Example 280, 2-(4-(2-(7,8-dimethyl-[1,2,4]triazolo[1,5-b]pyridazin-6-yl)-3-isopropyl-1H-indol-5-yl)piperidin-1-yl)-N,N-dimethylacetamide] | < 100 | < 100 | 1000 to 50000 |
| CC(C)c1c(-c2ccnc3[nH]ncc23)[nH]c2cc(F)c(C3CCNCC3)cc12 [Example 253, 4-(6-fluoro-3-isopropyl-5-(piperidin-4-yl)-1H-indol-2-yl)-1H-pyrazolo[3,4-b]pyridine] | < 100 | < 100 | 100 to 1000 |
| CC(C)c1c(-c2cn(C)c3ncccc23)[nH]c2ccc(C3CCN(CC(=O)N(C)C)CC3)cc12 [Example 295, 2-(4-(3-isopropyl-2-(1-methyl-1H-pyrrolo[2,3-b]pyridin-3-yl)-1H-indol-5-yl)piperidin-1-yl)-N,N-dimethylacetamide] | < 100 | < 100 | 1000 to 50000 |
| CC(C)c1c(-c2cn(C)c3ncccc23)[nH]c2ccc(C3CCNCC3)cc12 [Example 48, 3-(3-isopropyl-5-(piperidin-4-yl)-1H-indol-2-yl)-1-methyl-1H-pyrrolo[2,3-b]pyridine] | < 100 | < 100 | 1000 to 50000 |

— patent publication US11739098B2 (BRISTOL-MYERS SQUIBB COMPANY, priority 2017, dated 2023)
